Key:
[1] = tested on: ERK1/MAPK3, RRM2, AURKB, CDK4, BCL2, BIRC5 mRNA; test: Quantitative real-time PCR of mRNA levels in A375 cells; format: cell-based, human; conditions: 10 nM mimic, compared to miRNA control (FIG. 12b)
Description: Total RNA was isolated using TRI Reagent® (Sigma). To detect miR-3157 and U6 (small nuclear RNA RNU6-1) by qPCR, first 100 ng total RNA was mixed with 50 nM of a miR-3157 specific stem-loop (SL) primer or a U6 Reverse Transcriptase (RT) primer (Table 9), 33 μM dNTPs and 50 units M-MLV Reverse Transcriptase (RT) enzyme (Promega) in a 15 μl SL-RT reaction, and incubated for 30 min at 16° C., 30 min at 42° C. and 5 min at 85° C. For cDNA synthesis of total RNA, 1 μg RNA was mixed with 50 units M-MLV RT enzyme, 0.4 μg random hexamers (Qiagen) and 1 mM dNTPs in a 20 μl cDNA synthesis reaction, and incubated 10 min at 25° C., 120 min at 37° C. and 5 min at 85° C. For miR-3157 and U6 quantification, one μl SL-RT product was used for quantification in a single 20 μl qPCR reaction, using iQ™ SYBR® Green (Bio-Rad), and 0.625 μM forward and reverse primer (Table 9). The PCR protocol was 5 min 95° C. (1×), 10 s 95° C./20 s 60° C./10 s 72° C. (×45). For mRNA quantification, 1 μl cDNA was incubated with 1.25 μM gene-specific forward and reverse primers (Table 10) and iQ™ SYBR® Green in a 20 μl qPCR reaction for 5 min at 95° C. (1×), 15 s 95° C./30 s 60° C./30 s 72° C. (×45). PCR amplification was performed on a CFX96 Touch™ Real-Time PCR Detection System (Bio-Rad).

[2] = tested on: ERK1; test: Western blotting of ERK1 protein levels; format: cell-based, human
Description: Transfection was performed as described in Example 4 in 6-well format. Proteins were isolated using RIPA buffer (50 mM Tris pH 8.0, 150 mM NaCL, 1% NP-40, 0.5% Sodium deoxycholate, 0.1% SDS), supplemented with Protease Inhibitor Cocktail (Sigma) and Halt™ Phosphatase Inhibitor Cocktail (Pierce/Thermo Scientific). Fifteen μg protein was loaded on a 12% Mini-PROTEAN® TGX™ Precast Gel (Bio-Rad), and proteins were transferred to Immun-Blot PVDF Membrane (Bio-Rad). Membranes were blocked in 5% milk or 5% BSA in TBS-T, and incubated O/N at 4° C. with primary antibodies against α-tubulin (1:5000), BRAF, pERK1/2, CDK4, RRM2 (all 1:1000), BCL-2 (1:500) (Santa Cruz), total-ERK1/2 (1:2000), BIRC5, AURKB (1:1000) (Cell Signaling), ERK1 (1:2000) (GeneTex). After incubation with appropriate secondary antibodies and western blot chemiluminescence substrate ECL (Pierce/Thermo Scientific), membranes were exposed to CL-XPosure Film (Pierce/Thermo Scientific).

[3] = tested on: A2058 melanoma cell line; test: Anti-proliferative effect of miRNA mimics, MTS assay; format: cell-based; conditions: 10 nM mimic, 72 hours after transfection
Description: (§1) The anti-proliferative effect of miRNA's in melanoma cell lines was determined with mature miRNA mimics from Ambion. For each cell line optimal growth and transfection conditions were determined prior to the experiment. Cells were plated in a 96-well plate at 3000 cells per well (100 uL) and were grown at 37 C, 5% CO2. Transfection mix (20 uL per well) was made for each miRNA mimic concentration with 0.3 uL (M249, M249-R4) or 0.5 uL (A375Hu, A375Hu-R1, A2058, RPMI-7951) X-TremeGene (Roche) per well (according to manufacturer's instructions) in Optimem (Invitrogen). Cells were transfected 24 hours after plating in triplicate. Medium was replaced 48 hours after transfection with fresh medium.

[4] = tested on: M249-AR (M249-R4) melanoma cell line; test: as above; format: cell-based; conditions: 30 nM mimic, 72 hours after transfection
Description: as §1

[5] = tested on: M249 melanoma cell line; test: as above; format: cell-based; conditions: 5 nM mimic, 72 hours after transfection
Description: as §1

[6] = tested on: RPMI-7951 melanoma cell line; test: as above; format: cell-based; conditions: 10 nM mimic, 72 hours after transfection
Description: as §1

[7] = tested on: A375Hu-R1 melanoma cell line; test: as above; format: cell-based, human; conditions: 10 nM mimic, 72 hours after transfection
Description: as §1

[8] = tested on: A375Hu melanoma cell line; test: as above; format: cell-based, human; conditions: 10 nM mimic, 72 hours after transfection
Description: as §1

Substance: hsa-miR-3157-5p: mature miRNA mimic, SEQ ID NO 6 UUCAGCCAGGCUAGUGCAGUCU (listed as RNA, chemistry not given here)
- mRNA levels of ERK1, RRM2, AURKB, CDK4, BCL2, BIRC5 by qPCR [1]: reduced mRNA levels
- ERK1 protein levels ([2]; A375 cells, increasing concentrations of mimic (FIG. 12c)): most pronounced
- ERK1 protein levels ([2]; A2058, M249, M249-AR4 and M376, increasing concentrations of mimic (FIG. 14a)): not very strongly affected
- A2058 % Viability 10 nM [3]: 43%
- M249-AR % Viability 30 nM [4]: 53%
- M249 % Viability 5 nM [5]: 42%
- RPMI-7951 % Viability 10 nM [6]: 26%
- A375Hu-R1 % Viability 10 nM [7]: 67%
- A375Hu % Viability 10 nM [8]: 42%

— patent US10201556B2, “Combination for use in treating diseases or conditions associated with melanoma, or treating diseases or conditions associated with activated B-raf pathway” (InteRNA Technologies B.V., priority 2012, dated 2019)
